Test results reported in the supplement of paper PMC4862054.
Several values for one entry are separate records, joined by “and”; a condition that tells them apart may be missing. Equal values may be shown once.

Legend:
Assay in all cases: normalised viability (% of control), CellTiter-Blue; higher = more viable cells (about 100 = DMSO control)
[1] = system: DU-4475; details: 10 nM; incubation time: 72 h
Description: (§1)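 DSRT, CellTiter-Blue viability, 72 h incubation. Signal is normalised to DMSO and benzethonium chloride controls. Value is the normalised response at dose 3.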

[2] = system: CAL-120; details: 100 nM; incubation time: 72 h
Description: as §1

[3] = system: HCC1937; details: 100 nM; incubation time: 72 h
Description: as §1

[4] = system: MDA-MB-231; details: 100 nM; incubation time: 72 h
Description: as §1

[5] = system: MFM-223; details: 100 nM; incubation time: 72 h
Description: as §1

[6] = system: Hs578T; details: 100 nM; incubation time: 72 h
Description: as §1

[7] = system: BT-549; details: 100 nM; incubation time: 72 h
Description: as §1

[8] = system: CAL-148; details: 10 nM; incubation time: 72 h
Description: as §1

[9] = system: MDA-MB-436; details: 100 nM; incubation time: 72 h
Description: as §1

[10] = system: MDA-MB-453; details: 10 nM; incubation time: 72 h
Description: as §1

[11] = system: HDQ-P1; details: 10 nM; incubation time: 72 h
Description: as §1

[12] = system: HCC1143; details: 100 nM; incubation time: 72 h
Description: as §1

[13] = system: HCC1599; details: 100 nM; incubation time: 72 h
Description: as §1

[14] = system: MDA-MB-468; details: 100 nM; incubation time: 72 h
Description: as §1

[15] = system: CAL-51; details: 10 nM; incubation time: 72 h
Description: as §1

[16] = system: BT-474; details: 100 nM; incubation time: 72 h
Description: as §1

[17] = system: SK-BR-3; details: 100 nM; incubation time: 72 h
Description: as §1

[18] = system: CAL-85-1; details: 10 nM; incubation time: 72 h
Description: as §1

[19] = system: DU-4475; details: incubation time: 72 h
How it was run: (§2)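 After 72 h on compound-loaded 384-well plates, breast cancer cell lines received 2.5 µl CellTiter-Blue reagent for 2 h at 37 °C. Fluorescence at 560/590 nm was scaled per plate so that vehicle was 100 and a positive kill control was 0. The value stands for normalised viability at a single listed concentration of the series.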

[20] = system: CAL-120; details: incubation time: 72 h
How it was run: as §2

[21] = system: MDA-MB-231; details: incubation time: 72 h
How it was run: as §2

[22] = system: Hs578T; details: incubation time: 72 h
How it was run: as §2

[23] = system: BT-549; details: incubation time: 72 h
How it was run: as §2

[24] = system: CAL-148; details: incubation time: 72 h
How it was run: as §2

[25] = system: HCC1143; details: incubation time: 72 h
How it was run: as §2

[26] = system: MDA-MB-468; details: incubation time: 72 h
How it was run: as §2

[27] = system: BT-474; details: incubation time: 72 h
How it was run: as §2

[28] = system: SK-BR-3; details: incubation time: 72 h
How it was run: as §2

[29] = system: CAL-85-1; details: incubation time: 72 h
How it was run: as §2

CC1(C)CCC(c2ccc(Cl)cc2)=C(CN2CCN(c3ccc(C(=O)NS(=O)(=O)c4ccc(N[C@H](CCN5CCOCC5)CSc5ccccc5)c(S(=O)(=O)C(F)(F)F)c4)cc3)CC2)C1 [Navitoclax]
Details	normalised viability [%]
[1]	86.9
[2]	61.3
[3]	96.3
[4]	71.9
[5]	75.5
[6]	78.2
[7]	97.2
[8]	87
[9]	89.2
[10]	84.3
[11]	87.4
[12]	75.3
[13]	93.5
[14]	84.2
[15]	105
[16]	97.3
[17]	58.8
[18]	88.2

normalised viability [%]
Details	3 nM	10 nM	30 nM	100 nM	1000 nM	10000 nM
[19]	88.7	–	72.9	70.3	–	–
[20]	–	69.9	–	–	64.7	30.5
[21]	–	74.7	–	–	55.7	30.6
[22]	–	91.8	–	–	92.2	88.8
[23]	–	80.7	–	–	79.7	78.1
[24]	85.1	–	88.2	89.2	–	–
[25]	–	71.8	–	–	78.1	65.3
[26]	–	91.9	–	–	81.6	71.2
[27]	–	96.3	–	–	95.2	63
[28]	–	83.8	–	–	86	73.2
[29]	84.1	–	81.1	85.3	–	–

Cc1cn(-c2cc(NC(=O)c3ccc(C)c(Nc4nccc(-c5cccnc5)n4)c3)cc(C(F)(F)F)c2)cn1 [Nilotinib]
Details	normalised viability
[1]	98.8% and 104%
[2]	80.1% and 86.2%
[3]	90.7% and 85.8%
[4]	80.4% and 89.5%
[5]	99.6% and 95.5%
[6]	78.3% and 89.4%
[7]	95.6% and 88.2%
[8]	89.9% and 90.2%
[9]	100% and 93.8%
[10]	94% and 89%
[11]	101% and 85.7%
[12]	94.3% and 91.8%
[13]	113% and 111%
[14]	95.9% and 102%
[15]	109% and 111%
[16]	104% and 102%
[17]	73.4% and 86.6%
[18]	93.2% and 92.5%

normalised viability
Details	3 nM	10 nM	30 nM	100 nM	1000 nM	10000 nM
[19]	105% and 98.1%	–	96.6% and 119%	97.6% and 99.3%	–	–
[20]	–	78% and 85.4%	–	–	82.5% and 88%	90.2% and 92.4%
[21]	–	87.6% and 94.3%	–	–	71.3% and 75.2%	57.3% and 45.2%
[22]	–	97.3% and 112%	–	–	89% and 84.7%	106% and 91%
[23]	–	97.3% and 88.6%	–	–	71.5% and 73.6%	43.4% and 40.7%
[24]	77% and 88.5%	–	86.2% and 93.4%	90.8% and 95.3%	–	–
[25]	–	70.6% and 81.2%	–	–	98.7% and 101%	65% and 65.2%
[26]	–	100% and 102%	–	–	108% and 106%	97.5% and 108%
[27]	–	107% and 99.8%	–	–	93.9% and 106%	92.1% and 103%
[28]	–	104% and 94.5%	–	–	100% and 96.5%	90.4% and 94.3%
[29]	87% and 87.5%	–	81.8% and 80.2%	85.7% and 90.7%	–	–
